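Grown in 96-well plates, cells were treated for 48 hours with each compound at five concentrations. Insufficient inhibition: endpoint recorded as highest concentration tested. TGI: total growth inhibition.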
Experiments:
Test in all cases: growth of human tumour cells (NCI), 48 h
786-0 renal = test system: 786-0 renal
A549 NSCLC = test system: A549 NSCLC
ACHN renal = test system: ACHN renal
BT-549 breast = test system: BT-549 breast
CAKI-1 renal = test system: CAKI-1 renal
CCRF-CEM leukemia = test system: CCRF-CEM leukemia
COLO 205 colon = test system: COLO 205 colon
DU-145 prostate = test system: DU-145 prostate
EKVX NSCLC = test system: EKVX NSCLC
HCC-2998 colon = test system: HCC-2998 colon
HCT-116 colon = test system: HCT-116 colon
HCT-15 colon = test system: HCT-15 colon
HL-60(TB) leukemia = test system: HL-60(TB) leukemia
HOP-92 NSCLC = test system: HOP-92 NSCLC
HS 578T breast = test system: HS 578T breast
HT29 colon = test system: HT29 colon
IGROV1 ovarian = test system: IGROV1 ovarian
K-562 leukemia = test system: K-562 leukemia
KM12 colon = test system: KM12 colon
M14 melanoma = test system: M14 melanoma
MALME-3M melanoma = test system: MALME-3M melanoma
MCF7 breast = test system: MCF7 breast
MDA-MB-231 breast = test system: MDA-MB-231 breast
MDA-MB-435 = test system: MDA-MB-435
MOLT-4 leukemia = test system: MOLT-4 leukemia
NCI-H226 lung = test system: NCI-H226 lung
NCI-H23 lung = test system: NCI-H23 lung
NCI-H460 lung = test system: NCI-H460 lung
NCI-H522 lung = test system: NCI-H522 lung
NCI/ADR-RES ovarian = test system: NCI/ADR-RES ovarian
OVCAR-3 ovarian = test system: OVCAR-3 ovarian
OVCAR-4 ovarian = test system: OVCAR-4 ovarian
OVCAR-5 ovarian = test system: OVCAR-5 ovarian
OVCAR-8 ovarian = test system: OVCAR-8 ovarian
PC-3 prostate = test system: PC-3 prostate
RPMI-8226 leukemia = test system: RPMI-8226 leukemia
RXF 393 renal = test system: RXF 393 renal
SF-268 CNS = test system: SF-268 CNS
SF-295 CNS = test system: SF-295 CNS
SF-539 CNS = test system: SF-539 CNS
SK-MEL-2 melanoma = test system: SK-MEL-2 melanoma
SK-MEL-28 melanoma = test system: SK-MEL-28 melanoma
SK-MEL-5 melanoma = test system: SK-MEL-5 melanoma
SK-OV-3 ovarian = test system: SK-OV-3 ovarian
SN12C renal = test system: SN12C renal
SNB-19 CNS = test system: SNB-19 CNS
SNB-75 CNS = test system: SNB-75 CNS
SR leukemia = test system: SR leukemia
SW-620 colon = test system: SW-620 colon
T-47D breast = test system: T-47D breast
TK-10 renal = test system: TK-10 renal
U251 CNS = test system: U251 CNS
UACC-257 melanoma = test system: UACC-257 melanoma
UACC-62 melanoma = test system: UACC-62 melanoma
UO-31 renal = test system: UO-31 renal

`Nc1nc2ccc(Sc3ccc4nc(N)[nH]c(=O)c4c3)cc2c(=O)[nH]1` was tested. Which TGI (786-0 renal) did it give?
Its TGI is greater than 100 µM.

And the TGI (A549 NSCLC)?
The TGI was greater than 100 µM.

And the TGI (ACHN renal)?
The TGI was greater than 100 µM.

And the TGI (BT-549 breast)?
The TGI was greater than 100 µM.

What about the TGI (CAKI-1 renal) of the same compound?
Its TGI is greater than 100 µM.

What about the TGI (CCRF-CEM leukemia) of the same compound?
Its TGI is greater than 100 µM.

What about the TGI (COLO 205 colon) of the same compound?
The TGI was greater than 100 µM.

And the TGI (DU-145 prostate)?
Its TGI is greater than 100 µM.

What about the TGI (EKVX NSCLC) of the same compound?
Its TGI is greater than 100 µM.

What about the TGI (HCC-2998 colon) of the same compound?
Its TGI is greater than 100 µM.

And the TGI (HCT-116 colon)?
Its TGI is greater than 100 µM.

And the TGI (HCT-15 colon)?
The TGI was greater than 100 µM.

And the TGI (HL-60(TB) leukemia)?
Its TGI is greater than 100 µM.

What about the TGI (HOP-92 NSCLC) of the same compound?
Its TGI is greater than 100 µM.

What about the TGI (HS 578T breast) of the same compound?
The TGI was greater than 100 µM.

What about the TGI (HT29 colon) of the same compound?
The TGI was greater than 100 µM.

What about the TGI (IGROV1 ovarian) of the same compound?
Its TGI is greater than 100 µM.

And the TGI (K-562 leukemia)?
Its TGI is greater than 100 µM.

What about the TGI (KM12 colon) of the same compound?
The TGI was greater than 100 µM.

And the TGI (M14 melanoma)?
The TGI was greater than 100 µM.

And the TGI (MALME-3M melanoma)?
The TGI was greater than 100 µM.

What about the TGI (MCF7 breast) of the same compound?
The TGI was greater than 100 µM.

And the TGI (MDA-MB-231 breast)?
Its TGI is greater than 100 µM.

What about the TGI (MDA-MB-435) of the same compound?
The TGI was greater than 100 µM.

And the TGI (MOLT-4 leukemia)?
Its TGI is greater than 100 µM.

And the TGI (NCI-H226 lung)?
Its TGI is 81.9 µM.

What about the TGI (NCI-H23 lung) of the same compound?
The TGI was greater than 100 µM.

What about the TGI (NCI-H460 lung) of the same compound?
Its TGI is greater than 100 µM.

What about the TGI (NCI-H522 lung) of the same compound?
Its TGI is greater than 100 µM.

What about the TGI (NCI/ADR-RES ovarian) of the same compound?
The TGI was greater than 100 µM.

What about the TGI (OVCAR-3 ovarian) of the same compound?
The TGI was greater than 100 µM.

And the TGI (OVCAR-4 ovarian)?
The TGI was greater than 100 µM.

And the TGI (OVCAR-5 ovarian)?
Its TGI is greater than 100 µM.

And the TGI (OVCAR-8 ovarian)?
Its TGI is greater than 100 µM.

What about the TGI (PC-3 prostate) of the same compound?
Its TGI is greater than 100 µM.

What about the TGI (RPMI-8226 leukemia) of the same compound?
Its TGI is greater than 100 µM.

And the TGI (RXF 393 renal)?
Its TGI is greater than 100 µM.

And the TGI (SF-268 CNS)?
Its TGI is greater than 100 µM.

What about the TGI (SF-295 CNS) of the same compound?
Its TGI is greater than 100 µM.

And the TGI (SF-539 CNS)?
Its TGI is greater than 100 µM.

What about the TGI (SK-MEL-2 melanoma) of the same compound?
The TGI was greater than 100 µM.

And the TGI (SK-MEL-28 melanoma)?
The TGI was greater than 100 µM.

And the TGI (SK-MEL-5 melanoma)?
Its TGI is greater than 100 µM.

What about the TGI (SK-OV-3 ovarian) of the same compound?
The TGI was greater than 100 µM.

What about the TGI (SN12C renal) of the same compound?
The TGI was greater than 100 µM.

What about the TGI (SNB-19 CNS) of the same compound?
The TGI was greater than 100 µM.

What about the TGI (SNB-75 CNS) of the same compound?
Its TGI is greater than 100 µM.

What about the TGI (SR leukemia) of the same compound?
The TGI was greater than 100 µM.

And the TGI (SW-620 colon)?
Its TGI is greater than 100 µM.

And the TGI (T-47D breast)?
Its TGI is greater than 100 µM.

And the TGI (TK-10 renal)?
Its TGI is greater than 100 µM.

What about the TGI (U251 CNS) of the same compound?
The TGI was greater than 100 µM.

And the TGI (UACC-257 melanoma)?
The TGI was greater than 100 µM.

What about the TGI (UACC-62 melanoma) of the same compound?
The TGI was greater than 100 µM.

And the TGI (UO-31 renal)?
The TGI was greater than 100 µM.
